Source: patent US8802678B2, “Carbonylated (aza) cyclohexanes as dopamine D3 receptor ligands” (Bioprojet, priority 2006, dated 2014)

SMILES | melting point [°C]
CCOC(=O)CN1CCC(CCN2CCN(c3cccc(C)c3C)CC2)CC1 [Example 533, (4-{2-[4-(2,3-Dimethylphenyl)piperazin-1-yl]ethyl}piperidin-1-yl)acetic acid ethyl ester] | 82
Cc1ccc(F)c(N2CCN(CC[C@H]3CC[C@H](NC(=O)C4=CCCC4)CC3)CC2)c1 [Example 534, Cyclopent-1-enecarboxylic acid (4-{2-[4-(2-fluoro-5-methylphenyl)piperazin-1-yl]ethyl}cyclohexyl) amide] | 174
CCOc1cccc(N2CCN(CC[C@H]3CC[C@H](NC(=O)CCCC#N)CC3)CC2)c1 [Example 535, 4-Cyano-N-(4-{2-[4-(3-ethoxyphenyl)piperazin-1-yl]ethyl}cyclohexyl)butanamide] | 121
Cc1ccc(N2CCN(CC[C@H]3CC[C@H](NC(=O)C4=CCCC4)CC3)CC2)cc1F [Example 537, Cyclopent-1-enecarboxylic acid (4-{2-[4-(3-fluoro-4-methylphenyl)piperazin-1-yl]ethyl}cyclohexyl) amide] | 220
CCC(O)c1cccc(N2CCN(CC[C@H]3CC[C@H](NC(=O)CCCC#N)CC3)CC2)c1 (stereo partly shown) [Example 540, 4-cyano-N-[4-(2-{4-[3-(1-hydroxypropyl)phenyl]piperazin-1-yl}ethyl)cyclohexyl]butanamide] | 151
COCC(=O)N[C@H]1CC[C@H](CCN2CCN(c3cc(F)c(F)c(F)c3)CC2)CC1 [Example 542, 2-Methoxy-N-(4-{2-[4-(3,4,5-trifluorophenyl)piperazin-1-yl]ethyl}cyclohexyl)acetamide] | 153
O=C(N[C@H]1CC[C@H](CCN2CCN(c3ccc(F)c(F)c3F)CC2)CC1)C1=CCCC1 [Example 543] | 213
N#CCCCC(=O)N[C@H]1CC[C@H](CCN2CCN(c3ccc(C(F)(F)F)cc3)CC2)CC1 [Example 544, 4-Cyano-N-(4-{2-[4-(4-trifluoromethylphenyl)piperazin-1-yl]ethyl}cyclohexyl)butanamide] | 207
COCCCC(=O)N[C@H]1CC[C@H](CCN2CCN(c3cccc(Cl)c3C)CC2)CC1 [Example 547, N-(4-{2-[4-(3-Chloro-2-methylphenyl)piperazin-1-yl]ethyl}cyclohexyl)-4-methoxybutanamide] | 188
N#CCCCC(=O)N[C@H]1CC[C@H](CCN2CCN(c3ccc(F)c(Cl)c3F)CC2)CC1 [Example 552, N-(4-{2-[4-(3-Chloro-2,4-difluorophenyl)piperazin-1-yl]ethyl}cyclohexyl)-4-cyanobutanamide] | 192
Cc1ccccc1N1CCN(CC[C@H]2CC[C@H](NC(=O)C3=CCCC3)CC2)CC1 [Example 556, Cyclopent-1-enecarboxylic acid {4-[2-(4-o-tolylpiperazin-1-yl)ethyl]cyclohexyl} amide] | 181
CCOCC(=O)N[C@H]1CC[C@H](CCN2CCN(c3ccccc3C)CC2)CC1 [Example 557] | 101
N#CCCCC(=O)N[C@H]1CC[C@H](CCN2CCc3cc(C#N)ccc3C2)CC1 [Example 558, 4-Cyano-N-{4-[2-(6-cyano-3,4-dihydro-1H-isoquinolin-2-yl)ethyl]cyclohexyl}butanamide] | 177
CCOCC(=O)N[C@H]1CC[C@H](CCN2CCN(c3cccc(CC)c3)CC2)CC1 [Example 563, 2-Ethoxy-N-(4-{2-[4-(3-ethylphenyl)piperazin-1-yl]ethyl}cyclohexyl)acetamide] | 100
O=C(N[C@H]1CC[C@H](CCN2CCN(c3cccc(C(F)(F)F)c3)CC2)CC1)C1=COCC1 [Example 564, 4,5-Dihydrofuran-3-carboxylic acid (4-{2-[4-(3-trifluoromethylphenyl)piperazin-1-yl]ethyl}cyclohexyl) amide] | 175
O=C(N[C@H]1CC[C@H](CCN2CCN(c3ccc(F)cc3F)CC2)CC1)C1=CCCCO1 [Example 565, 5,6-Dihydro-4H-pyran-2-carboxylic acid (4-{2-[4-(2,4-difluorophenyl)piperazin-1-yl]ethyl}cyclohexyl) amide] | 160
CCC(O)c1cccc(N2CCN(CC[C@H]3CC[C@H](NC(=O)CC#N)CC3)CC2)c1 (stereo partly shown) [Example 566, 2-cyano-N-[4-(2-{4-[3-(1-hydroxypropyl)phenyl]piperazin-1-yl}ethyl)cyclohexyl]acetamide] | 157
COc1ccc(N2CCN(CC[C@H]3CC[C@H](NC(=O)C4=CCCC4)CC3)CC2)cc1 [Example 571, Cyclopent-1-enecarboxylic acid (4-{2-[4-(4-methoxyphenyl)-piperazin-1-yl]ethyl}cyclohexyl) amide] | 205
CCOCC(=O)N[C@H]1CC[C@H](CCN2CCN(c3ccc(OC)cc3)CC2)CC1 [Example 572, 2-Ethoxy-N-(4-{2-[4-(4-methoxyphenyl)piperazin-1-yl]ethyl}cyclohexyl)acetamide] | 132

Now from value to compound:

melting point [°C] | SMILES
180 | Cc1ccc(N2CCN(CC[C@H]3CC[C@H](NC(=O)CCCC#N)CC3)CC2)cc1F [Example 538, 4-Cyano-N-(4-{2-[4-(3-fluoro-4-methylphenyl)piperazin-1-yl]ethyl}cyclohexyl)butanamide]
124 | CCOCC(=O)N[C@H]1CC[C@H](CCN2CCN(c3ccc(C)c(F)c3)CC2)CC1 [Example 539, 2-Ethoxy-N-(4-{2-[4-(3-fluoro-4-methylphenyl)piperazin-1-yl]ethyl}cyclohexyl)acetamide]
198 | N#CCC(=O)N[C@H]1CC[C@H](CCN2CCN(c3ccc(F)c(Cl)c3F)CC2)CC1 [Example 551, N-(4-{2-[4-(3-Chloro-2,4-difluorophenyl)piperazin-1-yl]ethyl}cyclohexyl)-2-cyanoacetamide]
206 | N#CCC(=O)N[C@H]1CC[C@H](CCN2CCc3cc(C#N)ccc3C2)CC1 [Example 559, 2-Cyano-N-{4-[2-(6-cyano-3,4-dihydro-1H-isoquinolin-2-yl)ethyl]cyclohexyl}acetamide]
130 | CCc1cccc(N2CCN(CC[C@H]3CC[C@H](NC(=O)CCCOC)CC3)CC2)c1 [Example 560, N-(4-{2-[4-(3-Ethylphenyl)piperazin-1-yl]ethyl}cyclohexyl)-4-methoxybutanamide]
135 | CCc1cccc(N2CCN(CC[C@H]3CC[C@H](NC(=O)C4=CCCCO4)CC3)CC2)c1 [Example 561, 5,6-Dihydro-4H-pyran-2-carboxylic acid (4-{2-[4-(3-ethylphenyl)piperazin-1-yl]ethyl}cyclohexyl) amide]
142 | O=C(N[C@H]1CC[C@H](CCN2CCN(c3cccc(C(F)(F)F)c3)CC2)CC1)C1=CCCCO1 [Example 562, 5,6-Dihydro-4H-pyran-2-carboxylic acid (4-{2-[4-(3-trifluoromethylphenyl)piperazin-1-yl]ethyl}cyclohexyl) amide]
194 | COCCCC(=O)N[C@H]1CC[C@H](CCN2CCN(c3cc(F)c(F)c(F)c3)CC2)CC1 [Example 568, 4-Methoxy-N-(4-{2-[4-(3,4,5-trifluorophenyl)piperazin-1-yl]ethyl}cyclohexyl)butanamide]
227 | COc1ccc(N2CCN(CC[C@H]3CC[C@H](NC(=O)CC#N)CC3)CC2)cc1 [Example 573, 2-Cyano-N-(4-{2-[4-(4-methoxyphenyl)piperazin-1-yl]ethyl}cyclohexyl)acetamide]
